# Reference: patent US4293557A, “Antiulcer phenoxypropylamine derivatives” (Teikoku Hormone Mfg. Co., Ltd., priority 1979, dated 1981)
# What was measured:
# histamine H2 receptor = target: T1, histamine H2 receptor (Cavia porcellus, UniProt P47747); experiment: Measurement of histamine H2 receptor antagonizing activity (isolated right atrium, histamine dose-response of heart beat); design: species or system Hartley; settings: isolated guinea pig right atrium; test compound 1×10^-5 M; negative logarithm of molar concentration required to double the histamine concentration; Van Rossum method
# T1 construct: histamine-induced chronotropic response, pA2
# T1 sequence (P47747 whole entry): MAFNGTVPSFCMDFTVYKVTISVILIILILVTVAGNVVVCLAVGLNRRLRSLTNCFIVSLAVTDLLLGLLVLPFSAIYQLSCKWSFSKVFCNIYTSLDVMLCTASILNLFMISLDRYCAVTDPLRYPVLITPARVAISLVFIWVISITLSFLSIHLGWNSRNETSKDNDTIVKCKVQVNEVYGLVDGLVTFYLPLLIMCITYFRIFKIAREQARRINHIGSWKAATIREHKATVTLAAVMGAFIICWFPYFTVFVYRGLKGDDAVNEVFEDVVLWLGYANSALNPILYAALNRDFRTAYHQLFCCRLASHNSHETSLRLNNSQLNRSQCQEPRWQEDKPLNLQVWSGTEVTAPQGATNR
# Experimental: (1) Measurement of histamine H2 receptor antagonizing activity
# A guinea pig, Hartley, (male 400-550 g) was struck at the head to let out blood, and the heart was enucleated. The right atrium was separated in a Tyrod solution saturated with oxygen, and a silk thread was attached to its both ends. Using the silk threads at both ends, the atrium was suspended under a tension of 700 mg in a Magnus tube (25 ml) containing a Tyrod solution maintained at 36° C. through which mixture of 95% of O2 and 5% of CO2 was passed. The contracting motion of the atrium was recorded by a force-displacement transducer, and the number of heart beats was calculated.
# Histamine (used in the form of diphosphate; the same hereinbelow) was cumulatively added to the Magnus tube in a concentration of 1×10^-8 M to 1×10^-4 M in such an amount that the logarithm of the amount provides an equal interval of 1/2, until a maximum increase in heart beat was obtained. Thus, the dose-response curve of histamine was obtained. The inside of the Magnus tube was washed several times with a Tyrod solution, and the atrium was stabilized for 1 hour. Then, the above procedure was repeated to obtain the dose-response curve of histamine again. The inside of the Magnus tube was washed several times, and the tissues were stabilized for 50 minutes. Then, a test compound (1×10^-5 M) was added to the Magnus tube, and after 20 minutes, the dose-response curve of histamine in the presence of the test compound was obtained.
# The PA2 value (the negative logarithm of the molar concentration of the test compound required to double the concentration of histamine in the Magnus tube required to induce a certain reaction) was calculated from the dose-response curve of histamine obtained in the second operation and the dose-response curve of histamine in the presence of the test compound in accordance with the method of J. M. Van Rossum (Arch. int. Pharmacodyn., 143, 299, 1963).
# in vivo = settings: mouse, oral, 5% Tween 80 suspension, male ddY mice 19-22 g, Litchfield-Wilcoxon method
SMILES,PA2 (histamine H2 receptor),LD50 at 72 h (in vivo) [mg/kg]
"CCC(=O)NCCCOc1cccc(C(C)N2CCCC2)c1 (centres unmarked) [J, N-[3-[3-[1-(1-Pyrrolidinyl)ethyl]phenoxy]propyl]propionamide]",6.04,
CC(c1cccc(OCCCNC=O)c1)N1CCC(O)C1 (centres unmarked) [E],5.99,
CCC(c1cccc(OCCCNC=O)c1)N1CCCC1 (centres unmarked) [B],6.49,
"CC(c1cccc(OCCCNC(=O)CCN)c1)N1CCCC1 (centres unmarked) [N, N-(3-Aminopropionyl)-3-[3-[1-(1-pyrrolidinyl)ethyl]phenoxy]propylamine]",6.26,
"CCC(c1cccc(OCCCNC(C)=O)c1)N1CCCC1 (centres unmarked) [G, N-[3-[3-[1-(1-Pyrrolidinyl)propyl]phenoxy]propyl]acetamide]",6.47,
"CC(=O)OCC(=O)NCCCOc1cccc(C(C)N2CCCC2)c1 (centres unmarked) [P, N-[3-[3-[1-(1-Pyrrolidinyl)ethyl]phenoxy]propyl]acetoxyacetamide]",6.11,
"CC(=O)NCCCOc1cccc(C(C)N2CCCC2)c1 (centres unmarked) [F, N-[3-[3-[1-(1-Pyrrolidinyl)ethyl]phenoxy]propyl]acetamide]",6.16,2100
"CC(c1cccc(OCCCNC=O)c1)N1CCCCCC1 (centres unmarked) [D, N-[3-[3-(1-(1-Perhydroazepinyl)ethyl]phenoxy]propyl]formamide]",6.14,
"CC(c1cccc(OCCCNC=O)c1)N1CCCC1 (centres unmarked) [A, N-[3-[3-[1-(1-Pyrrolidinyl)ethyl]phenoxy]propyl]formamide]",6.12,2500
"CC(=O)OCC(=O)NCCCOc1cccc(CN2CCCCCC2)c1 [R, N-[3-[3-(1-Perhydroazepinylmethyl)phenoxy]propyl]acetoxyacetamide]",6.28,
"CC(=O)OCC(=O)NCCCOc1cccc(CN2CCCCC2)c1 [Q, N-[3-[3-(1-Piperidinylmethyl)phenoxy]propyl]acetoxyacetamide]",7.10,

# Continued, in another order:
PA2 (histamine H2 receptor),SMILES,LD50 at 72 h (in vivo) [mg/kg]
6.62,"COCC(=O)NCCCOc1cccc(CN2CCCCC2)c1 [O, N-[3-[3-(1-Piperidinylmethyl)phenoxy]propyl]methoxyacetamide]",
6.80,"O=C(COC(=O)c1ccc(Cl)c(Cl)c1)NCCCOc1cccc(CN2CCCCCC2)c1 [U, N-(3,4-Dichlorobenzoyloxyacetyl)-3-[3-(1-perhydroazepinylmethyl)phenoxy]propylamine]",
6.50,"O=CNCCCOc1cccc(CN2CCCCC2)c1 [C, N-[3-[3-(1-Piperidinylmethyl)phenoxy]propyl]formamide]",
6.74,"O=C(COC(=O)c1ccccc1)NCCCOc1cccc(CN2CCCCC2)c1 [T, N-[3-[3-(1-Piperidinylmethyl)phenoxy]propyl]benzoyloxyacetamide]",
6.77,"CCC(=O)OCC(=O)NCCCOc1cccc(CN2CCCCC2)c1 [S, N-[3-[3-(1-Piperidinylmethyl)phenoxy]propyl]propionyloxyacetamide]",
6.52,"CC(=O)NCCCOc1cccc(CN2CCCCC2)c1 [H, N-[3-[3-(1-Piperidinylmethyl)phenoxy]propyl]acetamide]",
6.29,"O=C(CO)NCCCOc1cccc(CN2CCCCCC2)c1 [M, N-[3-[3-(1-Perhydroazepinylmethyl)phenoxy]propyl]hydroxyacetamide]",
5.97,"CC(=O)NCCCOc1cccc(C(C)N2CCCCC2)c1 (centres unmarked) [I, N-[3-[3-[1-(1-Piperidinyl)ethyl]phenoxy]propyl]acetamide]",
5.83,"CC(c1cccc(OCCCNC(=O)CO)c1)N1CCCC1 (centres unmarked) [K, N-[3-[3-[1-(1-Pyrrolidinyl)ethyl]phenoxy]propyl]hydroxyacetamide]",
6.79,"O=C(CO)NCCCOc1cccc(CN2CCCCC2)c1 [L, N-[3-[3-(1-Piperidinylmethyl)phenoxy]propyl]hydroxyacetamide]",
